Eleven compounds from ChEMBL document CHEMBL5512632, “Unlocking the potential of 1,4-naphthoquinones: A comprehensive review of their anticancer properties” (Eur J Med Chem, 2024) can be followed below.

The test system of test [1] is AGS. Nature of the test: Antiproliferative activity against human AGS cells assessed as inhibition of cell growth incubated for 24 hrs by MTT reagent based microplate reader assay. Format: functional.
The test system of a further test is MKN-28. As to the kind of experiment: Antiproliferative activity against human MKN-28 cells assessed as inhibition of cell growth incubated for 24 hrs by MTT reagent based microplate reader assay. Format: functional. As to conditions: MKN-28, 24 h. In general terms: Tetrazolium assays rely on reduction of a dye to a coloured formazan, in cell work by metabolically active cells.

The subject of another test is MKN-45. Nature of the test: Antiproliferative activity against human MKN-45 cells assessed as inhibition of cell growth incubated for 24 hrs by MTT reagent based microplate reader assay. The note with it: MKN-45, 24 h. It counts as functional.
Test [2] in a line: Antiproliferative activity against human SNU-216 cells assessed as inhibition of cell growth incubated for 24 hrs by MTT reagent based microplate reader assay. The note with it: SNU-216, 24 h. Format: functional.
Test [3] is described as follows: Antiproliferative activity against human SNU-484 cells assessed as inhibition of cell growth incubated for 24 hrs by MTT reagent based microplate reader assay. It counts as functional. As to conditions: SNU-484, 24 h.
Another test relates to NCI-N87. Nature of the test: Antiproliferative activity against human NCI-N87 cells assessed as inhibition of cell growth incubated for 24 hrs by MTT reagent based microplate reader assay. It counts as functional. The note with it: NCI-N87, 24 h.
Test [4] in a line: Antiproliferative activity against human YCC-1 cells assessed as inhibition of cell growth incubated for 24 hrs by MTT reagent based microplate reader assay. As to conditions: YCC-1, 24 h. Format: functional.
Test [5] is described as follows: Antiproliferative activity against human YCC-6 cells assessed as inhibition of cell growth incubated for 24 hrs by MTT reagent based microplate reader assay. It counts as functional. The note with it: YCC-6, 24 h.
Test [6] is described as follows: Antiproliferative activity against human YCC-16 cells assessed as inhibition of cell growth incubated for 24 hrs by MTT reagent based microplate reader assay. It counts as functional. As to conditions: YCC-16, 24 h.
Test [7] concerns HepG2. Nature of the test: Antiproliferative activity against human HepG2 cells assessed as inhibition of cell growth incubated for 24 hrs by MTT reagent based microplate reader assay. Format: functional. As to conditions: HepG2, 24 h.
The test system of a further test is Hep 3B2. Nature of the test: Antiproliferative activity against human Hep3B cells assessed as inhibition of cell growth incubated for 24 hrs by MTT reagent based microplate reader assay. It counts as functional.
The next test deals with Huh-7. As to the kind of experiment: Antiproliferative activity against human Huh-7 cells assessed as inhibition of cell growth incubated for 24 hrs by MTT reagent based microplate reader assay. Format: functional. The note with it: Huh-7, 24 h.
Test [8] relates to HeLa. As to the kind of experiment: Cytotoxicity against human HeLa cells incubated for 48 hrs by MTT microplate reader assay. Format: functional, cell-based.
Test [9] has as its system A549. Nature of the test: Cytotoxicity against human A549 cells assessed as reduction in cell viability incubated for 24 hrs by MTT assay. It counts as functional, cell-based. As to conditions: A549, 24 h.
Test [10] has as its system HeLa. Nature of the test: Cytotoxicity against human HeLa cells assessed as reduction in cell viability incubated for 24 hrs by MTT assay. It counts as functional, cell-based.
Test [11] deals with MCF7. Nature of the test: Cytotoxicity against human MCF7 cells assessed as reduction in cell viability incubated for 24 hrs by MTT assay. Format: functional, cell-based. As to conditions: MCF7, 24 h.
In test [12] the test system is A549. As to the kind of experiment: Antiproliferative activity against human A549 cells assessed as inhibition of cell growth by MTT assay. It counts as functional, cell-based.
A short description of test [13]: Cytotoxicity against human NCI-H358M cells incubated for 72 hrs by MTT assay. It counts as functional, cell-based.
The test system of another test is OVCAR-8. Nature of the test: Cytotoxicity against human OVCAR-8 cells incubated for 72 hrs by MTT assay. Format: functional, cell-based. As to conditions: OVCAR-8, 72 h.
The subject of the next test is PC-3M. As to the kind of experiment: Cytotoxicity against human PC-3M cells incubated for 72 hrs by MTT assay. It counts as functional, cell-based.
Test [14] concerns AGS. As to the kind of experiment: Cytotoxicity against human AGS cells incubated for 72 hrs by MTT assay. Format: functional, cell-based.
The subject of a further test is SK-MES-1. As to the kind of experiment: Cytotoxicity against human SK-MES-1 cells incubated for 72 hrs by MTT assay. It counts as functional, cell-based. As to conditions: SK-MES-1, 72 h.
The subject of a further test is J82. As to the kind of experiment: Cytotoxicity against human J82 cells incubated for 72 hrs by MTT assay. It counts as functional, cell-based. The note with it: J82, 72 h.
The subject of test [15] is HT-29. Nature of the test: Cytotoxicity against human HT-29 cells assessed as inhibition of cell growth incubated upto 72 hrs by MTT assay. The note with it: HT-29, 72 h. It counts as functional, cell-based.
For another test, the system named is SW480. Nature of the test: Cytotoxicity against human SW480 cells assessed as inhibition of cell growth incubated upto 72 hrs by MTT assay. The note with it: SW480, 72 h. It counts as functional, cell-based.
In test [16] the test system is HepG2. As to the kind of experiment: Cytotoxicity against human HepG2 cells assessed as inhibition of cell growth incubated upto 72 hrs by MTT assay. Format: functional, cell-based. The note with it: HepG2, 72 h.
Test [17] relates to HL-60. Nature of the test: Cytotoxicity against human HL-60 cells assessed as inhibition of cell growth incubated upto 72 hrs by MTT assay. Format: functional, cell-based. As to conditions: HL-60, 72 h.
The subject of test [18] is MCF7. Nature of the test: Cytotoxicity against human MCF7 cells assessed as inhibition of cell growth incubated upto 72 hrs by MTT assay. Format: functional, cell-based. The note with it: MCF7, 72 h.
In test [19] the test system is HL-60. Nature of the test: Cytotoxicity against human HL-60 cells assessed as reduction in cell growth incubated for 48 hrs by MTT assay. It counts as functional, cell-based. The note with it: HL-60, 48 h.
The subject of a further test is HCT-116. Nature of the test: Antiproliferative activity against human HCT-116 cells assessed as inhibition of cell growth incubated for 24 hrs by BrdU incorporation assay. Format: functional, cell-based. The note with it: HCT-116, 24 h.
Test [20] relates to HT-29. As to the kind of experiment: Antiproliferative activity against human HT-29 cells assessed as inhibition of cell growth incubated for 24 hrs by BrdU incorporation assay. The note with it: HT-29, 24 h. Format: functional, cell-based. Background: Dividing cells build labelled thymidine or BrdU into new DNA.
Another test has as its system DU-145. As to the kind of experiment: Cytotoxicity against human DU-145 cells incubated for 48 hrs by MTT assay. It counts as functional, cell-based. The note with it: DU-145, 48 h.
Test [21] deals with MCF7. As to the kind of experiment: Cytotoxicity against human MCF7 cells incubated for 48 hrs by MTT assay. As to conditions: MCF7, 48 h. It counts as functional, cell-based.
In test [22] the test system is MCF7. Nature of the test: Cytotoxicity against human MCF7 cells incubated for 72 hrs. Format: functional, cell-based. The note with it: MCF7, 72 h.

SMILES strings stand for the structures. In brackets after ≈: the same amount, converted by molar mass.

For orientation: IC50 means the concentration that inhibits the measured activity by half. On to `COc1ccc(OC)c2c1C(=O)C=C(Sc1ccc3ccccc3c1)C2=O`, for which the IC50 in the test with AGS [1] was 0.42 µM; in the test with MKN-28, 1.2 µM; in the test with MKN-45 it was 0.82 µM; in test [2], 0.89 µM; in test [3], 1.44 µM; with NCI-N87, 1.53 µM. Also, the IC50 is 1.3 µM in test [4]; 0.8 µM in [5]; 1.58 µM in [6]; 0.87 µM with HepG2 [7]; 0.9 µM with Hep 3B2; 2.84 µM in the test on Huh-7.
Turning to `COc1ccc(C(C2=C(O)C(=O)c3ccccc3C2=O)c2c(C)[nH]n(-c3ccccc3)c2=O)c(O)c1` (centres undefined), in the test with HeLa [8], the IC50 was determined as 2.9 µM.
`O=C(Nc1ccc(S(=O)(=O)c2ccc(NC3=C(Sc4ccccc4)C(=O)c4ccccc4C3=O)cc2)cc1)c1cc(Cl)cc(Cl)c1`: the half-maximal inhibitory concentration (IC50) in the test with A549 [9] worked out at 1.98 µM; with HeLa [10], 1.17 µM; with MCF7 [11], 0.05 µM.
For `CC(=O)NCC1=C(Nc2ccc(O)c(C)c2)C(=O)c2ccccc2C1=O`, the IC50 in the test on A549 [12] worked out at 3 µg/mL (≈ 8.56 µM).
Turning to `CC1(O)CCC(C#CC2=C(C#CC3CCC(C)(O)CC3)C(=O)c3ccccc3C2=O)CC1` (centres undefined), the concentration for half-maximal inhibition (IC50) in test [13] came out at 2.98 µM; in the test on OVCAR-8 it was 2.28 µM; in the test on PC-3M, 4.28 µM.
For the compound `CCCCCC(=O)C1=C(/C(C(=O)OC)=C(\C)NC(Cc2c[nH]c3ccccc23)C(=O)OC)C(=O)c2ccccc2C1=O` (centres undefined), the results for the half-inhibitory concentration (IC50) in the test on AGS [14], in the test with SK-MES-1 and with J82 were 9.3 µM, 5.5 µM and 4.5 µM, respectively.
As to `CC(C)=CCC/C(C)=C/CC/C(C)=C/CC1=C(O)C(=O)c2ccccc2C1=O`, the IC50 in the test with HT-29 [15] came out at 1.99 µM; in the test with SW480, 2.02 µM; with HepG2 [16], 14 µM; with HL-60 [17], 5.41 µM; in the test on MCF7 [18], 47 µM.
Consider `CC(=O)N[C@H]1[C@H](OC2=C(CC=C(C)C)C(=O)c3ccccc3C2=O)O[C@H](COC(C)=O)[C@@H](OC(C)=O)[C@@H]1OC(C)=O`, for which, in the test on HL-60 [19], the half-inhibitory concentration (IC50) was determined as 5.3 µM.
In the case of `O=C1C(Cl)=C(Oc2ccc(-c3oc4cc(O)cc(O)c4c(=O)c3O)cc2O)C(=O)c2ccccc21`, the IC50 was determined as 10.3 µM with HCT-116 and 23.2 µM with HT-29 [20].
For the compound `COc1cc(N)cc(OC)c1C1=C(C(C)=O)C(=O)c2ccccc2C1=O`, the IC50 with DU-145 is 12.3 µM; with MCF7 [21] it was 21.2 µM.
Take `CCC/C=C/C(=O)C1=C(OC)C(=O)c2cc(OC)c(OC)cc2C1=O`: in the test with MCF7 [22], inhibition was half-maximal at 15 µM (IC50).
